Source: the NIST ThermoML archive (doi:10.1016/j.tca.2005.04.030)
± gives the expanded uncertainty stated by the source.

Columns and labels:
[1] = refractive index (Na D-line) (dimensionless); conditions: 298.1 K, 101.33 kPa, Liquid
[2] = 101.33 kPa, Liquid; for mass density: 298.1 K, Vibrating tube method; for speed of sound: 298.15 K, Anton Paar DSA 48

Row | Compound | refractive index ([1]; ATAGO RX-1000) | mass density [2] [kg/m3] | speed of sound [2] [m/s] | refractive index ([1]; Anton Paar DSA 48)
1 | O [water] | 1.3325 ± 8e-05 |  |  | 
2 | CCO [ethanol] | 1.3592 ± 0.00011 | 785.22 ± 0.25 | 1143 ± 2 | 
3 | CCCCOC(C)(C)C [butane, 1-(1,1-dimethylethoxy)-] |  | 757.57 ± 0.17 | 1113 ± 2 | 1.3917 ± 5e-05
4 | CO [methanol] | 1.3264 ± 0.0002 | 786.63 ± 0.25 | 1101 ± 2 | 
